From patent publication US8906897B2, “Antimicrobial agents based on hemin derivatives” (Obschestvo S Ogranichennoi Otvetstvennostiyu …, priority 2009, dated 2014) come the findings set out here.

In one series the test system is Candida albicans No. 927. The experiment in a line: Antifungal activity, culture growth with pH indicator. Also on record: key to Test culture growth at various dilutions of the agent: (−) No growth; the indicator is blue; (±) Weak growth; the indicator is yellow, but the precipitate of grown cells looks as a diffuse spot; (+) Strong growth; the indicator is yellow, and the cell precipitate looks as a compact spot. In kind it is cell-based. How it is done: The subjects of action were Cryptococcus neoformans No. 3465 museum strain cells and Candida albicans No. 927 museum strain cells grown for one day on a glucose-peptone-yeast medium at 32° C. The reference compounds were the following antimycotics: pimafucin, amphotericin, and fluconazole.
Experiments were carried out on round-bottomed 96-well plates (Lenmedpolimer) in two replicas. To the first column (0), added was 10 μL of the stock solution of a water-soluble agent with concentrations of 10^−2 to 10^−3 mol/L; to the second column, added was also the same 10 μL plus 10 μL of the solvent corresponding to the given compound, suspended, 10 μL was transferred to the next well, and so on to the 8th well of the row. Stock solutions of water-insoluble compounds of general formula (I) (compounds V, VIII, XII, XIII, XIV, and hemin) were prepared in DMSO and were diluted with DMSO and the medium. DMSO concentrations in the reaction mixture in a well were ≦5%.
Then, to every well added was 190 μL of a Cr. neoformans cell culture suspension in a synthetic nutritional medium (so that the final cell concentration was approximately 10^3 CFU/mL), this medium containing Bromocresol Blue as a pH-indicator (pH: 5.5; indicator color: blue). As pH reduced to 4.5, the indicator in the culture changed its color to yellow, thereby indicating fungal cell growth. The synthetic medium comprised the following components: salts, amino acids, microelements, vitamins, an antibiotic, and glucose (30 components altogether) [Yarrow, D., “Methods for the Isolation, Maintenance and Identification of Yeasts,” in: The Yeasts. A Taxonomic Study, Ed. by Kurtsman, C. P, and Fell, M., Elsevier, 1998, pp. 77-100]. After being inoculated with a Cr. neoformans cell suspension, the plate was incubated at 32° C. for 1 h with stirring, then transferred to a stationary thermostat and incubated for two and five days at 27° C. After being inoculated with a C. albicans cell suspension, the plates were incubated for 1 h at 32° C. with stirring, then transferred to a stationary thermostat and incubated for one and four days at 27° C.

The test system of a further series is human leukocytes. The experiment in a line: Cytotoxic activity against human leukocytes. The settings on record: 3 h incubation. The protocol: Total leukocytes were isolated from human blood by unforced sedimentation using freshly collected venous blood from a healthy donor.
Blood (10 mL) added with 10 units/mL heparin was exposed for 2.5 h in the dark at a temperature of 15 to 18° C. A light-colored liquid supernatant (4 mL) was collected over the layer of sedimenting erythrocytes, washed three times with balanced Hanks's salt solution, and resuspended in the RPMI-1640 medium (added with 8% fetal bovine serum, 2 mM L-glutamine, and 10 mM HEPES; hereinafter, the complete medium).
The concentrations of leukocytes and erythrocytes in the suspension were determined by counts in Goryachev's chamber, after which the suspension was adjusted to a leukocyte concentration of (1.0±0.1)×10^6 cells/mL with the complete medium.
To determine the cytotoxicity of the tested compounds for human leukocytes, the cell suspension was transferred to wells of sterile 96-well plates, tested compounds were added with serial twofold dilutions (the range of tested concentrations was from 3.2 to 100 μM for GrD and gramicidin S; from 8 to 500 μM for compound XIII; and from 8 to 1000 μM for compounds V, VI, VII, VIII, IX, X, XI, XIV, XV, XIX, and Hem), and the mixture was carefully stirred. The experiment was performed in two replicas.
As controls served cells added with an equivalent amount of the solvent in which tested compounds were prepared, namely: water for compounds VII and X; an aqueous solution of DMSO for compounds V, VI, VIII, and IX; and DMSO for GrD, gramicidin S, Hem, XI, XIII, XIV, XV, and XIX. An additional control was an additive-free leukocyte suspension.
Cells were incubated with tested compounds for 3 h (37° C., 5% CO2, 100% humidity). Leukocyte death values were quantified using fluorescence microscopy. Staining with propidium iodide (it permeates only into dead cells nuclei) and Hoechst 33342 (it stains all nuclei) was used to recognize dead and living cells. Cells were incubated for 15 min in plates with propidium iodide and Hoechst 33342 (37° C., 5% CO2), and then the plates were placed under a microscope for analysis.
The dead cell fraction was derived from the fluorescence images of cells obtained in the blue (Hoechst 33342) and red (propidium iodide) spectral ranges using an Axio Observer (Zeiss, Germany) fluorescence microscope equipped with a 10× objective lens (Plan-Neofluar 10×/0.3). The following sets of fluorescence filters were used. For propidium iodide: a 530/585-nm bandpass excitation filter, a 600-nm cut-off dichroic minor, and a 615-nm longpass barrier filter for analysis. For Hoechst 33342: a 359/372-nm bandpass excitation filter, a 395-nm cut-off dichroic mirror, and a 397-nm longpass barrier filter for analysis.
A digital camera recorded three types of cell images: (a) an image in the transmitted white light; (b) a blue fluorescence image obtained with UV excitation, and (c) a red fluorescence image obtained with green light excitation. At least four fields of view were photographed per well in various regions of a well.

A short description of series [1]: Solubility of tested agents (water / DMSO). The conditions noted are these: water or DMSO.
The test system of series [2] is Micrococcus luteus BKM Ac-2230. The experiment in a line: Antibacterial activity (MIC/MBC), serial dilutions in liquid MH medium. In kind it is cell-based. How it is done: (§1) The antibacterial activity of compounds was determined against Bacillus subtilis BKM B-501, Staphylococcus aureus 209P, Enterococcus faecalis BKM B-871, and Micrococcus luteus BKM Ac-2230 strains (acquired from the All-Russia Collection of Microorganisms at the Institute for Biochemistry and Physiology of Microorganisms, Russian Academy of Sciences). The main parameters characterizing the antibacterial activity are the minimal inhibitory concentration (MIC) and minimal bactericidal concentration (MBC). […] MBC is the least concentration that causes the death of all cells.
(§2) MIC was quantified by inhibiting culture growth in a liquid medium with serial dilutions of compounds using a modified procedure [Amsterdam, D., “Susceptibility Testing of Antimicrobials in Liquid Media,” in Antibiotics in Laboratory Medicine, Ed. by Lorian, V., 4th ed., Baltimore: Williams and Wilkins, 1996, pp. 52-111].
(§3) Bacteria were cultured and tests were carried out on an MH liquid medium (Mueller-Hinton medium: a dry extract of beef broth, 4 g/L; starch, 1.5 g/L; casein hydrolyzate, 17.5 g/L; Sigma-Fluka Catalog No. 70192) at 37° C., 100% humidity, and under stirring. Cultures (4th through 7th receeding post-thawing) in the exponential growth phase were used for tests.
(§4) Therefore, a correction for absorption was applied in estimating the optical density of bacterial suspensions for each compound with account for its concentration in the well.
(§5) The protocol for experimental antibacterial activity determination for tested compounds was as follows. A cryovial with the test strain culture (Bacillus subtilis BKIVI B-501, Staphylococcus aureus 209P, Enterococcus faecalis BKM B-871, or Micrococcus luteus BKIVI Ac-2230) in a medium with 7% DMSO stored in liquid nitrogen, was rapidly defrosted, and 1.5 mL of the fresh MH medium was inoculated with 100 μL of the cell suspension. Cells were grown for one day at 37° C. and stirred on an orbital shaker at 150 rpm. The morphologic features of the strain and the absence of contamination with foreign bacteria were verified by: (a) inoculation on an agarized (15 g/L agar) MH medium and observation of the shape and color of the grown colonies and (b) examination of characteristic morphologic features under a microscope (Mikmed-2, LOMO, Russia) equipped with a 40× objective lens. Further bacteria were cultured in 1 mL of the liquid MH medium at 37° C. under stirring. The cells were reseeded every day. Cell cultures were used in tests starting with 3rd reseeding and ending with 6th one.
(§6) For testing, 5 μL of a bacterial suspension in the stationary growth phase was transferred to 1 mL of a sterile MH medium and incubated until the exponential growth phase was attained (3 to 5 h, 37° C., stirring at 150 rpm). To estimate the microorganisms concentration, the optical density (A) of the resulting bacterial culture was measured at a wavelength of 595 nm. The value of A=0.2 measured from a […] portion of the cell suspension in a 96-well plate, with a correction for the medium absorption applied, was set to correspond to 4×10^8 cells/mL for both strains used. Taking into account the cell concentration measurements, the suspension was diluted with the MH medium to a concentration of from 5×10^4 to 1×10^5 cells/mL and transferred to a sterile 96-well plate in an amount of 100 μL, per well. Then, the cells were added with tested compounds and twofold serial dilutions of these compounds in plate's wells were made.
(§7) The controls used were: 100 μL of an additive-free bacterial culture (four wells); a bacterial culture added with 1% DMSO or water in the same volume as in the wells with the maximal concentration of the tested compounds (four wells); and 100 μL of the sterile MH medium without bacteria and without tested compounds for control of occasional contamination in the plate (four wells).

Series [3] relates to Bacillus subtilis BKM B-501. Described as above. In kind it is cell-based. The protocol: as §1, §2, §3, §4, §5, §6, §7
Series [4] deals with Staphylococcus aureus No. 100 KC. The experiment in a line: Specific activity against resistant bacterial strains. In kind it is cell-based. The conditions noted are these: Staphylococcus aureus, NO.100KC, read-out: MICs for Vancomycin. The protocol: (§8) The tested agents were water-soluble hemin derivatives (compounds VII and XVIII) or DMSO-soluble derivatives (compounds VIII, XV, and XIV). Vancomycin was the reference compound. Each compound was tested in three replicas.
(§9) Sterile single-use flat-bottomed 96-well plates, Petri dishes, pipettes, tips, and test tubes (Pan-Eco, Moscow) were used in the study.
(§10) The nutritional media used were as follows. A working Mueller Hinton broth was prepared from dry media (Mueller Hinton broth, Acumedia, Baltimore) and sterilized by autoclaving at 121° C. for 15 min.
(§11) Staphylococcus aureus was cultured on the Tripticase Soy Agar (BBL) commercially available dry medium. Enterococcus faecalis was cultured on the Columbia Agar Base (BBL) commercially available dry medium. These media were sterilized by autoclaving at 121° C. for 15 min.
(§12) Bacterial inoculum was fixed and equal to 5×10^5 CFU/mL.
(§13) For water-soluble compounds, wells from 2nd through 8th were added with the solvent (water) in an amount of 15 μL per well, then the 1st well was added with 30 μL of the stock solution of the tested compound in water with a concentration of 1×10^3M, and the concentration was adjusted to 0.007×10^3 M by serial twofold dilutions. A 10-μL portion was taken from every well, and 190 μL of the bacterial culture (10^5 CFU) was added per well.
(§14) For DMSO-soluble compounds, wells from 2nd through 8th were added with the solvent (DMSO) in an amount of 10 μL per well, then the 1st well was added with 20 μL of the stock solution of the tested compound in […] with a concentration of 5×10^3M, and the concentration was adjusted to 0.039×10^3 M by serial twofold dilutions. A 2-μL portion was taken from each well, and 198 μL of the bacterial culture (10^5 CFU) was added per well.
(§15) The control comprised wells free of tested compounds (culture growth control). In addition, purity control of nutritional media and solvents was used. Plates were incubated in a thermostat at 36° C. for 24 hours.
(§16) Culture growth was evaluated visually by comparison of how microorganisms grew in the presence of tested compounds and in the absence of them. MSC (the minimal suppressing concentration) was set equal to the last dilution of a tested agent which suppressed bacterial culture growth.

Series [5] deals with Staphylococcus aureus No. 25923 ATCC. The description is as above. In kind it is cell-based. The settings on record: Staphylococcus aureus, NO.25923ATCC, read-out: MICs for Vancomycin. The protocol:
as §8, §9, §10, §11, §12, §13, §14, §15, §16

Series [6] deals with Enterococcus faecalis No. 559. The series is described as above. In kind it is cell-based. The settings on record: Enterococcus faecalis, NO.559, read-out: MICs for Vancomycin. The protocol:
as §8, §9, §10, §11, §12, §13, §14, §15, §16

Values after ≈ are worked out from the molar mass of the structure shown.

As for “Protohemin IX 6(7)-Mono[Cyclo(Orn-Leu-D-Phe-Pro-Val)2])amide [Compound XIII]”, the “Test culture growth at various dilutions of the agent” value is “±” in the series with Candida albicans No. 927 (dilution 0: 1 × 10^−4 M); “±” in the series with Candida albicans No. 927 (dilution : 2 of 1 × 10^−4 M); “+” with Candida albicans No. 927 (dilution : 4 of 1 × 10^−4 M); “+” in the series with Candida albicans No. 927 (dilution : 8 of 1 × 10^−4 M); “+” in the series with Candida albicans No. 927 (dilution : 16 of 1 × 10^−4 M); “+” with Candida albicans No. 927 (dilution : 32 of 1 × 10^−4 M). The “Test culture growth at various dilutions of the agent” value in the series on Candida albicans No. 927 (dilution : 64 of 1 × 10^−4 M) is “+”. The “Death of leukocytes in the presence of 1 mM of compound” value in the series on human leukocytes was found to be 14 ± 2%. Also, in series [1], the “solubility (in words)” value was “water-insoluble”.
In general, MBC refers to the lowest tested concentration that kills the bacteria rather than only halting them. Consider `C=CC1=C(C)c2cc3[n-]c(cc4nc(cc5[n-]c(cc1n2)c(C)c5CCC(=O)NCC(=O)OC)C(CCC(=O)NCC(=O)OC)=C4C)c(C)c3C=C.[Cl-].[Fe+3]` [Compound XV, 6,7-Bis(N^α-Glycyl Methyl Ester)-Protohemin IX], for which the “Death of leukocytes in the presence of 1 mM of compound” value in the series with human leukocytes was determined as 13 ± 1%. For the same molecule, the “concentration at which a weak toxic effect on leukocytes appears” value in the series with human leukocytes is about 1000 µM. Besides, the MBC in series [2] amounted to 6.5 µM; in series [3] it was 25 ± 7 µM. Also, the MIC was determined as 1.6 µM in series [2] (20 h, MH medium) and 12.5 ± 4 µM in series [3] (20 h, MH medium). The “solubility (in words)” value in series [1] is given as “DMSO-soluble”.
In the case of `CN[C@H](CC(C)C)C(=O)N[C@H]1C(=O)N[C@@H](CC(N)=O)C(=O)N[C@H]2C(=O)N[C@H]3C(=O)N[C@H](C(=O)N[C@H](C(=O)O)c4cc(O)cc(O)c4-c4cc3ccc4O)[C@H](O)c3ccc(c(Cl)c3)Oc3cc2cc(c3O[C@@H]2O[C@H](CO)[C@@H](O)[C@H](O)[C@H]2O[C@H]2C[C@](C)(N)[C@H](O)[C@H](C)O2)Oc2ccc(cc2Cl)[C@H]1O` [Vancomycin, reference compound], the MIC in series [4], in series [5] and in series [6] was 1 µg/mL (≈ 0.69 µM) throughout.
